ChEMBL document CHEMBL1127759, “Synthesis and in vitro cytotoxicity of 6-vinyluridine and related compounds” (Bioorg Med Chem Lett, 1994)

Test system: L1210
Assay: In vitro growth inhibitory activity against mouse L1210 leukemia cells
Assay type: functional, cell-based

| IC50 [µM] | SMILES |
| --- | --- |
| 1 | CCOC(=O)/C(Br)=C\c1cc(O)nc(O)n1 |
| > 90 | C/C=C/c1cc(O)nc(O)n1 |
| 11 | C=Cc1nc(O)nc(O)c1Br |
| 46 | C/C=C\c1cc(O)nc(O)n1 |
| 3 | CCOC(=O)/C(Cl)=C\c1cc(O)nc(O)n1 |
| 3 | C=Cc1cc(O)nc(O)n1 |
| 4.5 | C=Cc1nc(O)nc(O)c1Cl |
| 2 | C=Cc1nc(O)nc(O)c1I |
| 38 | CCOC(=O)/C=C/c1cc(O)nc(O)n1 |
| > 25 | COC(=O)/C(Br)=C\c1cc(=O)[nH]c(=O)n1C1O[C@H](CO)[C@@H](O)[C@H]1O (some centres undefined) |
| > 30 | CCOC(=O)/C(C)=C/c1cc(=O)[nH]c(=O)n1C1O[C@H](CO)[C@@H](O)[C@H]1O (some centres undefined) |
| > 35 | CCOC(=O)/C=C/c1cc(=O)[nH]c(=O)n1C1O[C@H](CO)[C@@H](O)[C@H]1O (some centres undefined) |
| > 35 | C/C=C/c1cc(=O)[nH]c(=O)n1C1O[C@H](CO)[C@@H](O)[C@H]1O (some centres undefined) |
| 12 | C=Cc1cc(=O)[nH]c(=O)n1C1O[C@H](CO)[C@@H](O)[C@H]1O (some centres undefined) |
